Assay results taken from patent publication US6737383B1, “Herbicidal oxadiazolidines” (priority 1999, dated 2004).

Columns and labels:
velvetleaf = test: Test B pre/postemergence velvetleaf; type: in vivo, Abutilon theophrasti; settings: for Velvetleaf plant response rating: Postemergence; for Plant response rating, Velvetleaf: Preemergence
Summary of the method: (§1)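 Test chemicals in a non-phytotoxic solvent mixture with surfactant were sprayed preemergence onto planted seeds and postemergence onto plants 2 to 18 cm tall (1- to 4-leaf stage). After twelve to sixteen days in a greenhouse, injury was visually rated against untreated controls from 0 (no effect) to 10 (complete control).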

bedstraw = test: Test B pre/postemergence bedstraw; type: in vivo, Galium aparine; settings: Postemergence, Rate 1000 g/ha; scale 0 to 10 (0 no effect, 10 complete control)
Summary of the method: as §1

duck salad = test: Test B flood test duck salad; type: in vivo, Heteranthera limosa
Summary of the method: (§2)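 Plants were grown to the 2-leaf stage before treatment with test chemical, then held in a greenhouse for twelve to sixteen days. Injury was visually rated against untreated controls on a 0–10 scale, where 0 is no effect and 10 is complete control.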

crabgrass = test: Test B pre/postemergence crabgrass; type: in vivo, Digitaria sanguinalis; settings: for Crabgrass plant response rating: Postemergence; for Plant response rating, Crabgrass: Preemergence
Summary of the method: as §1

smallflower flatsedge = test: Test B flood test smallflower flatsedge; type: in vivo, Cyperus difformis
Summary of the method: as §2

wild oat = test: Test B pre/postemergence wild oat; type: in vivo, Avena fatua; settings: for Wild oats plant response rating: Postemergence; for Plant response rating, Wild oats: Preemergence
Summary of the method: as §1

pigweed = test: Test B pre/postemergence pigweed; type: in vivo, Amaranthus retroflexus; settings: for Redroot pigweed plant response rating: Postemergence; for Plant response rating, Redroot pigweed: Preemergence
Summary of the method: as §1

sugar beet = test: Test B pre/postemergence sugar beet; type: in vivo, Beta vulgaris; settings: for Sugarbeets plant response rating: Postemergence; for Plant response rating, Sugarbeets: Preemergence
Summary of the method: as §1

surinam grass = test: Test B pre/postemergence surinam grass; type: in vivo, Brachiaria decumbens; settings: for B. signalgrass plant response rating: Postemergence; for Plant response rating, B. signalgrass: Preemergence
Summary of the method: as §1

corn = test: Test B pre/postemergence corn; type: in vivo, Zea mays; settings: for Corn plant response rating: Postemergence; for Plant response rating, Corn: Preemergence
Summary of the method: as §1

rape = test: Test B pre/postemergence rape; type: in vivo, Brassica napus; settings: for Rape plant response rating: Postemergence; for Plant response rating, Rape: Preemergence
Summary of the method: as §1

soybean = test: Test B pre/postemergence soybean; type: in vivo, Glycine max; settings: for Soybean plant response rating: Postemergence; for Plant response rating, Soybean: Preemergence
Summary of the method: as §1

wheat = test: Test B pre/postemergence wheat; type: in vivo, Triticum aestivum; settings: for Wheat plant response rating: Postemergence; for Plant response rating, Wheat: Preemergence
Summary of the method: as §1

blackgrass = test: Test B pre/postemergence blackgrass; type: in vivo, Alopecurus myosuroides; settings: for Blackgrass plant response rating: Postemergence; for Plant response rating, Blackgrass: Preemergence
Summary of the method: as §1

rice = test: Test B flood test rice; type: in vivo, Oryza sativa
Summary of the method: as §2

purple nutsedge = test: Test B pre/postemergence purple nutsedge; type: in vivo, Cyperus rotundus; settings: for Nutsedge plant response rating: Postemergence; for Plant response rating, Nutsedge: Preemergence
Summary of the method: as §1

[1] = Rate 125 g/ha, scale of 0 to 10 where 0 is no effect and 10 is complete control
[2] = Rate 1000 g/ha, scale 0 to 10 (0 no effect, 10 complete control)
[3] = Rate 500 g/ha, scale of 0 to 10 where 0 is no effect and 10 is complete control
[4] = Rate 250 g/ha, scale 0 to 10, 0 is no effect, 10 is complete control
[5] = Rate 500 g/ha, scale 0 to 10, 0 is no effect, 10 is complete control
[6] = Pre-emergence, Rate 1000 g/ha, scale 0 to 10 (0 no effect, 10 complete control)
[7] = Rate 125 g/ha, under heading Pre-emergence, flood test species, visual evaluation after twelve to sixteen days
[8] = Rate 250 g/ha, Pre-emergence (flood test species), scale 0 to 10, 0 is no effect, 10 is complete control
[9] = Rate 500 g/ha, Pre-emergence section of Table B, 0 to 10 scale (0 no effect, 10 complete control)
[10] = Rate 250 g/ha, scale 0 to 10 (0 no effect, 10 complete control)

## COC(=O)C(c1ccccc1)n1c(=O)on(C(=O)N(c2ccc(F)cc2)C(C)C)c1=O (stereo not shown) [Compound 677]
velvetleaf; [1]
  Velvetleaf plant response rating: 0
  Plant response rating, Velvetleaf: 0
velvetleaf; [2]
  Velvetleaf plant response rating: 3
  Plant response rating, Velvetleaf: 0
velvetleaf; [3]
  Plant response rating, Velvetleaf: 0
velvetleaf; [4]
  Velvetleaf plant response rating: 0
velvetleaf; [5]
  Velvetleaf plant response rating: 3
bedstraw
  Bedstraw plant response rating: 0
Duck salad; [6]
  Ducksalad plant response rating: 0
Duck salad; [7]
  Ducksalad plant response rating (0 to 10 scale, 0 is no effect, 10 is complete control): 0
Duck salad; [8]
  Ducksalad plant response rating: 0
Duck salad; [9]
  Ducksalad plant response rating: 0
crabgrass; [1]
  Crabgrass plant response rating: 0
  Plant response rating, Crabgrass: 3
crabgrass; [2]
  Crabgrass plant response rating: 6
  Plant response rating, Crabgrass: 9
crabgrass; [10]
  Plant response rating, Crabgrass: 6
crabgrass; [3]
  Plant response rating, Crabgrass: 7
crabgrass; [4]
  Crabgrass plant response rating: 0
crabgrass; [5]
  Crabgrass plant response rating: 4
Smallflower flatsedge; [6]
  S. Flatsedge plant response rating: 0
Smallflower flatsedge; [7]
  S. Flatsedge plant response rating (0 to 10 scale, 0 is no effect, 10 is complete control): 0
Smallflower flatsedge; [8]
  S. Flatsedge plant response rating: 0
Smallflower flatsedge; [9]
  S. Flatsedge plant response rating: 0
Wild oat; [1]
  Wild oats plant response rating: 0
  Plant response rating, Wild oats: 0
Wild oat; [2]
  Wild oats plant response rating: 0
  Plant response rating, Wild oats: 2
Wild oat; [3]
  Plant response rating, Wild oats: 0
Wild oat; [4]
  Wild oats plant response rating: 0
Wild oat; [5]
  Wild oats plant response rating: 0
pigweed; [1]
  Redroot pigweed plant response rating: 2
  Plant response rating, Redroot pigweed: 4
pigweed; [2]
  Redroot pigweed plant response rating: 4
  Plant response rating, Redroot pigweed: 8
pigweed; [4]
  Redroot pigweed plant response rating: 3
pigweed; [5]
  Redroot pigweed plant response rating: 3
Sugar beet; [1]
  Sugarbeets plant response rating: 0
  Plant response rating, Sugarbeets: 0
Sugar beet; [2]
  Sugarbeets plant response rating: 1
  Plant response rating, Sugarbeets: 7
Sugar beet; [3]
  Plant response rating, Sugarbeets: 0
Sugar beet; [4]
  Sugarbeets plant response rating: 0
Sugar beet; [5]
  Sugarbeets plant response rating: 1
Surinam grass; [1]
  B. signalgrass plant response rating: 0
  Plant response rating, B. signalgrass: 0
Surinam grass; [2]
  B. signalgrass plant response rating: 1
  Plant response rating, B. signalgrass: 9
Surinam grass; [10]
  Plant response rating, B. signalgrass: 3
Surinam grass; [3]
  Plant response rating, B. signalgrass: 5
Surinam grass; [4]
  B. signalgrass plant response rating: 0
Surinam grass; [5]
  B. signalgrass plant response rating: 0
corn; [1]
  Corn plant response rating: 0
  Plant response rating, Corn: 0
corn; [2]
  Corn plant response rating: 0
  Plant response rating, Corn: 0
corn; [10]
  Plant response rating, Corn: 0
corn; [3]
  Plant response rating, Corn: 0
corn; [4]
  Corn plant response rating: 0
corn; [5]
  Corn plant response rating: 0
rape; [1]
  Rape plant response rating: 0
  Plant response rating, Rape: 0
rape; [2]
  Rape plant response rating: 0
  Plant response rating, Rape: 3
rape; [3]
  Plant response rating, Rape: 0
rape; [4]
  Rape plant response rating: 0
rape; [5]
  Rape plant response rating: 0
soybean; [1]
  Soybean plant response rating: 0
  Plant response rating, Soybean: 0
soybean; [2]
  Soybean plant response rating: 7
  Plant response rating, Soybean: 0
soybean; [3]
  Plant response rating, Soybean: 0
soybean; [4]
  Soybean plant response rating: 1
soybean; [5]
  Soybean plant response rating: 2
wheat; [1]
  Wheat plant response rating: 0
  Plant response rating, Wheat: 0
wheat; [2]
  Wheat plant response rating: 0
  Plant response rating, Wheat: 0
wheat; [3]
  Plant response rating, Wheat: 0
wheat; [4]
  Wheat plant response rating: 0
wheat; [5]
  Wheat plant response rating: 0
blackgrass; [1]
  Blackgrass plant response rating: 0
  Plant response rating, Blackgrass: 0
blackgrass; [2]
  Blackgrass plant response rating: 4
  Plant response rating, Blackgrass: 4
blackgrass; [10]
  Plant response rating, Blackgrass: 0
blackgrass; [3]
  Plant response rating, Blackgrass: 0
blackgrass; [4]
  Blackgrass plant response rating: 0
blackgrass; [5]
  Blackgrass plant response rating: 1
rice; [6]
  Rice plant response rating: 0
rice; [7]
  Rice plant response rating (0 to 10 scale, 0 is no effect, 10 is complete control): 0
rice; [8]
  Rice plant response rating: 0
rice; [9]
  Rice plant response rating: 0
Purple nutsedge; [1]
  Nutsedge plant response rating: 0
  Plant response rating, Nutsedge: 0
Purple nutsedge; [2]
  Nutsedge plant response rating: 0
  Plant response rating, Nutsedge: 0
Purple nutsedge; [3]
  Plant response rating, Nutsedge: 0
Purple nutsedge; [4]
  Nutsedge plant response rating: 0
Purple nutsedge; [5]
  Nutsedge plant response rating: 0
